The source of these data is ChEMBL document CHEMBL4308877, “Thiazole, thio and semicarbazone derivatives against tropical infective diseases: Chagas disease, human African trypanosomiasis (HAT), leishmaniasis, and malaria” (Eur J Med Chem, 2019).

In brackets after ≈: the same amount, converted by molar mass.

Data set [1] in a line: Selectivity index, ratio of IC50 for human SK-N-SH cells to IC50 for wild type Trypanosoma brucei. Conditions: read-out: Ratio IC50. It is filed as toxicity.
Data set [2] concerns Trypanosoma brucei. The data set is described as follows: Anti-parasitic activity against wild type Trypanosoma brucei. It counts as functional, organism-based.
Data set [3] concerns Trypanosoma brucei. The data set is described as follows: Anti-parasitic activity against type 1 nitroreductase over-expressing Trypanosoma brucei. It counts as functional, organism-based.
Data set [4] can be described thus: Selectivity index, ratio of IC50 for human THP1 cells to IC50 for Trypanosoma brucei overexpressing the type 1 nitroreductase. It counts as toxicity. The note with it: read-out: Ratio IC50.
Data set [5] in a line: Selectivity index, ratio of EC50 for human U-937 cells to IC50 for amastigote stage of EGFP-fused Leishmania panamensis MHOM/CO/87/UA140. It is filed as toxicity. Conditions: read-out: Selectivity Index.
For another data set, the system named is Leishmania panamensis. Put plainly: Anti-parasitic activity against amastigote stage of EGFP-fused Leishmania panamensis MHOM/CO/87/UA140 infected in human U-937 cells after 72 hrs by flow cytometric analysis. It counts as functional, organism-based. Conditions: MHOM/CO/87/UA140, U-937, 72 h. For orientation: A flow cytometer gives signals particle by particle.

In data set [6] the test system is Trypanosoma cruzi. Put plainly: Anti-parasitic activity against amastigote stage of Trypanosoma cruzi Y infected in monkey LLC-MK2 cells after 96 hrs. Conditions: LLC-MK2, 96 h. It is filed as functional, organism-based.
In data set [7] the test system is Trypanosoma cruzi. Put plainly: Anti-parasitic activity against trypomastigote stage of Trypanosoma cruzi Y infected in monkey LLC-MK2 cells after 24 hrs. It is filed as functional, organism-based. The note with it: LLC-MK2, 24 h.
In data set [8] the test system is Leishmania amazonensis. Put plainly: Anti-parasitic activity against amastigote stage of Leishmania amazonensis WHOM/00 LTB 0016 infected in mouse macrophages after 24 hrs. It is filed as functional, organism-based. The note with it: WHOM/00 LTB 0016, 24 h.
Data set [9] concerns Leishmania amazonensis. Put plainly: Anti-parasitic activity against promastigote stage of Leishmania amazonensis WHOM/00 LTB 0016 after 96 hrs. It is filed as functional, organism-based. Conditions: WHOM/00 LTB 0016, 96 h.
Data set [10] can be described thus: Selectivity index, ratio of CC50 for mouse macrophages to IC50 for promastigote stage of Leishmania amazonensis WHOM/00 LTB 0016. Conditions: read-out: Ratio CC50/IC50. It is filed as toxicity.
The nature of data set [11]: Selectivity index, ratio of CC50 for mouse macrophages to IC50 for amastigote stage of Leishmania amazonensis WHOM/00 LTB 0016. It is filed as toxicity. Conditions: read-out: Ratio CC50/IC50.
In data set [12] the test system is Trypanosoma brucei brucei. Put plainly: Anti-parasitic activity against Trypanosoma brucei brucei 427 after 72 hrs by Alamar Blue assay. The note with it: Trypanosoma brucei, 427, 72 h. It counts as functional, organism-based. In general terms: Alamar Blue is a resazurin reagent that responds to reducing activity.
The nature of data set [13]: Selectivity index, ratio of LC50 for salina eggs to IC50 for Trypanosoma brucei brucei 427. It is filed as toxicity. The note with it: Artemia salina (brine shrimp), read-out: Ratio IC50.
In data set [14] the test system is Leishmania infantum. The data set is described as follows: Anti-parasitic activity against amastigote stage of Leishmania infantum MHOM/BR/BH 46 infected in macrophages after 24 hrs by Giemsa staining based method. The note with it: MHOM/BR/BH 46, 24 h. It is filed as functional, organism-based.
Data set [15] concerns Leishmania infantum. The data set is described as follows: Anti-parasitic activity against promastigote stage of Leishmania infantum MHOM/BR/BH 46 after 72 hrs by Neubauer chamber method. It counts as functional, organism-based. Conditions: MHOM/BR/BH 46, 72 h.
Data set [16] is described as follows: Selectivity index, ratio of cytotoxic activity for macrophages (unknown origin) to IC50 for amastigote stage of Leishmania infantum MHOM/BR/BH 46. It is filed as toxicity. The note with it: read-out: Ratio CC50/IC50.
Data set [17] in a line: Selectivity index, ratio of CC50 for mouse J774 cells to IC50 for promastigote stage of Leishmania infantum MHOM/BR/BH 46. It is filed as toxicity. The note with it: read-out: Ratio CC50/IC50.
The test system of data set [18] is Trypanosoma brucei rhodesiense. Put plainly: Anti-parasitic activity against Trypanosoma brucei rhodesiense STIB 851. It counts as functional, organism-based.
The nature of data set [19]: Selectivity index, ratio of IC50 for HEK293T cells to IC50 for Trypanosoma brucei gambiense MBA. The note with it: human. It counts as toxicity.
A short description of data set [20]: Selectivity index, ratio of IC50 for HEK293T cells to IC50 for Trypanosoma brucei brucei AnTat1.1E. It is filed as toxicity. Conditions: human.
A short description of data set [21]: Selectivity index, ratio of IC50 for HEK293T cells to IC50 for Trypanosoma brucei rhodesiense STIB 851. It counts as toxicity. The note with it: human.
The test system of data set [22] is Trypanosoma brucei gambiense. The data set is described as follows: Anti-parasitic activity against Trypanosoma brucei gambiense MBA. It is filed as functional, organism-based.
Data set [23] relates to Trypanosoma brucei brucei. The data set is described as follows: Anti-parasitic activity against Trypanosoma brucei brucei AnTat1.1E. It counts as functional, organism-based.
In the next data set the test system is C6. Put plainly: Cytotoxicity against rat C6 cells assessed as reduction in cell viability after 24 hrs by MTT assay. It is filed as functional, cell-based. Conditions: C6, 24 h. A general note: Tetrazolium dyes change colour on reduction, which living cells bring about.
For the next data set, the system named is A549. The data set is described as follows: Cytotoxicity against human A549 cells assessed as reduction in cell viability after 24 hrs by MTT assay. It is filed as functional, cell-based. Conditions: A549, 24 h.
In data set [24] the test system is Trypanosoma cruzi. Put plainly: Anti-parasitic activity against amastigote stage of Trypanosoma cruzi Sylvio X-10 infected in African green monkey Vero cells after 72 hrs by Giemsa-staining based assay. It counts as functional, organism-based. Conditions: Sylvio X-10, Vero.
The test system of data set [25] is Trypanosoma cruzi. The data set is described as follows: Anti-parasitic activity against epimastigote stage of Trypanosoma cruzi Tulahuen 2 measured at day 5. It counts as functional, organism-based. The note with it: Tulahuen 2, 120 h.
The nature of data set [26]: Selectivity index, ratio of CC50 for mouse J774A1 cells to IC50 for amastigote stage of Leishmania amazonensis infected in BALB/c mouse Peritoneal macrophages. Conditions: read-out: Ratio CC50/IC50. It counts as toxicity.
Data set [27] deals with Leishmania amazonensis. The data set is described as follows: Anti-parasitic activity against promastigote stage of Leishmania amazonensis MHOM/BR/Josefa […] after 72 hrs by Neubauer chamber method. It counts as functional, organism-based.
Data set [28] can be described thus: Selectivity index, ratio of CC50 for mouse J774A1 cells to IC50 for axenic amastigote stage of Leishmania amazonensis MHOM/BR/Josefa. It counts as toxicity. Conditions: read-out: Ratio CC50/IC50.
Data set [29] in a line: Selectivity index, ratio of CC50 for mouse J774A1 cells to IC50 for promastigote stage of Leishmania amazonensis MHOM/BR/Josefa. It counts as toxicity. Conditions: read-out: Ratio CC50/IC50.
Data set [30] relates to Leishmania amazonensis. The data set is described as follows: Anti-parasitic activity against axenic amastigote stage of Leishmania amazonensis MHOM/BR/Josefa […] after 72 hrs by Neubauer chamber method. It counts as functional, organism-based.
Data set [31] deals with Leishmania amazonensis. The data set is described as follows: Anti-parasitic activity against amastigote stage of Leishmania amazonensis MHOM/BR/Josefa infected in BALB/c mouse Peritoneal macrophages after 48 hrs by Giemsa staining-based method. It is filed as functional, organism-based.

By IC50 is commonly meant the point on the concentration scale where inhibition reaches its midpoint. Take `CC(=O)Nc1ncc([N+](=O)[O-])s1` [NITHIAMIDE]: the selectivity ratio in data set [1] was over 21; in data set [4] it was 149. Besides, the IC50 with Trypanosoma brucei [2] stood at 4.67 µM; in the data set with Trypanosoma brucei [3], 0.58 µM.

Usually EC50 stands for the concentration needed to bring the measured effect to its halfway point. For `NC(=O)N/N=C1\CC(c2ccccc2)Sc2ccccc21` (centres undefined), the selectivity ratio in data set [5] came out at 18.6. Further, in the data set with Leishmania panamensis, a half-maximal effect (EC50) was put at 5.4 µM.

Compound `N/C(S)=N/N=C/c1ccc([N+](=O)[O-])cc1` came in with an IC50 with Trypanosoma cruzi [6] of 3.23 µM. In addition, in the data set on Trypanosoma cruzi [7], the response was half-maximal at 1.43 µM (EC50).

`NC(=S)N/N=C(/COc1ccccc1)c1ccccc1`: the IC50 turned out to be 33 µM in the data set on Leishmania amazonensis [8] and 6 µM in the data set on Leishmania amazonensis [9]. The selectivity ratio came out at 71.1 in data set [10] and 4.94 in [11].

In data set [12], `S=C(NN=C(c1ccccc1)c1ccccc1)Nc1ccccc1` had an IC50 of 8.48 µM. Besides, the selectivity ratio in data set [13] is 43.2.

As for `COc1ccc(/C(COc2ccccc2)=N\NC(N)=S)cc1`, the results for the IC50 in the data set with Leishmania amazonensis [8] and with Leishmania amazonensis [9] were 34.3 µM and 3.5 µM, respectively. Besides, the selectivity ratio in [10] turned out to be 44.4; in data set [11], 4.5.

As for `O=C1c2ccccc2C(=O)N1Nc1nc(-c2ccc3ccccc3c2)cs1`, the values for the IC50 with Leishmania infantum [14] and in the data set with Leishmania infantum [15] were 5.2 µM and 9.8 µM, respectively. Further, the selectivity ratio in data set [16] was determined as 24; in data set [17] it was 17.7.

With `O=C1c2ccccc2C(=O)N1Nc1nc(-c2ccc(Cl)cc2Cl)cs1`, the IC50 worked out at 22.3 µM in the data set with Leishmania infantum [14] and 13.9 µM with Leishmania infantum [15]. For the same compound, the selectivity ratio amounted to 12 in data set [16] and 12.7 in data set [17].

`Nc1ccccc1/C(=N\NC(=S)Nc1ccccc1)c1ccccc1` returned an IC50 in data set [12] of 2.83 µM. The selectivity ratio in data set [13] came out at 15.

For the compound `O=c1c2ccccc2sn1-c1ccccc1`, the half-inhibitory concentration (IC50) was 0.263 µM in data set [18], 0.061 µM in data set [22] and 0.092 µM in data set [23]. In addition, the selectivity ratio came to 262 in [19], 174 in data set [20] and 60.8 in [21].

Turning to `Cc1c(CO)c(CO)c2n1[C@@H](c1ccccc1)SC2`, the IC50 in the data set on C6 was found to be 3.83 µg/mL (≈ 13.9 µM); in the data set on A549, 12 µg/mL (≈ 43.6 µM).

Regarding `C=CCn1c(C(=O)N2CCN(C/C=C/c3ccccc3)CC2)cs\c1=N/N=C/C=C/c1ccco1`, in the data set with Trypanosoma cruzi [24], the response was half-maximal at 0.7 µM (EC50). In the data set with Trypanosoma cruzi [25], this compound showed an IC50 of 3.1 µM.

As to `CC1=CC[C@@H](C(C)(C)NC(=S)N/N=C/c2ccc([N+](=O)[O-])cc2)CC1`, the figures for the selectivity ratio in data set [26], in data set [28] and in [29] were 11.5, 11.1 and 23.4, respectively. Further, the concentration for half-maximal inhibition (IC50) came out at 3.8 µM in the data set on Leishmania amazonensis [27], 8 µM with Leishmania amazonensis [30] and 7.7 µM in the data set with Leishmania amazonensis [31].
